Counter-ions that a name gives are not always drawn. Like-named read-outs stand apart in the source and are kept apart here.
Columns and labels:
[1] = target: NMDA receptor; experiment: [3H]CPP binding assay (displacement of tritiated CPP in rat frontal cortex homogenates); settings: [3H]CPP 8 nM, 23° C., 15 min, pH 7.6
Method: The compounds of the invention are tested for their NMDA competitive antagonist activity by their ability to displace tritiated 3-(2-carboxypiperazine-4-yl)propyl-1-phosphonic acid (CPP), a known competitive NMDA antagonist, in rat frontal cortex homogenates in the in vitro [^3 H]CPP binding assay.
Rats are decapitated and their brains are immediately removed, weighed and placed in approximately 15 volumes of ice cold 10% sucrose. Each brain is homogenized using a Potter Elvehjem glass homogenizer (12 strokes at 840 rpm) equipped with a Teflon pestle. The homogenate is then centrifuged at 1,000×g. for 10 minutes. The resulting pellet is discarded and the supernatant is centrifuged at 20,000×g. for 20 minutes. The crude mitochondrial pellet is resuspended in ice cold distilled water and dispersed using a Brinkmann Polytron (PT-10 at setting of 6 for 30 seconds). The suspension is centrifuged at 8,000×g. for 20 minutes. The resulting supernatant and buffy coat is centrifuged at 48,000×g.for 20 minutes. The final crude synaptic membrane pellet is resuspended in ice cold distilled water and centrifuged at 48,000×g. for 20 minutes.
To facilitate removal of endogenous glutamate, the membranes are resuspended in 15 volumes of ice cold 50 mMolar TRIS (pH 7.6) containing 0.04% Triton X-100. The suspension is incubated at 37° C. for 15 minutes, and then centrifuged at 20,000×g. for 20 minutes. The pellet is washed (i.e., resuspended in ice cold TRIS buffer and centrifuged at 20,000×g. for 20 minutes) twice. The membrane pellet is finally resuspended in 15 volumes ice cold 50 mMolar TRIS, distributed to several centrifuge tubes and centrifuged at 20,000×g. for 20 minutes and the pellets are frozen (-70° C.) for subsequent use in binding assays.
For the binding assay, the membrane pellets are thawed and resuspended in 15 volumes ice cold 50 mMolar TRIS (pH 7.6) buffer. Triplicate samples (1000 μl) of the membrane suspension containing between 0.2 and 0.4 mg protein/ml are incubated at 23° C. for 15 minutes with 8 nM [^3 H]CPP (New England Nuclear), one of various test solutions, and buffer in a final incubation volume of 2 ml using plastic minivials (Skatron). The samples are then centrifuged at 48,000×g. for 20 minutes and the supernatants discarded. The pellets are digested with tissue solubilizer (NCS, Amersham; 500 μl/sample) for 1 hour. Hydrochloric acid (100 μl of 4N) is added to each sample to reduce chemiluminescence during subsequent counting. Scintillation cocktail (Aqasol, DuPont; 3.2 ml) is added to each of the minivials which are then capped and shaken for 15 minutes prior to counting. The vials are placed into a Packard 460 CD (or equivalent) counter for determination of radioactivity.
Total specific binding is defined as total binding less the binding in the presence of 1 mMolar NMDA. Specific binding in the presence of a test drug is expressed as a percent of total specific binding when no drug is present. When test compounds are examined for a dose-response relationship, the results are then plotted as the logit of % binding vs. the log of the test drug concentration. Linear regression analysis then yields a straight line from which an IC50 with 95% confidence limits can be calculated.

[2] = test system: NMDA-induced convulsions; experiment: murine NMDA-induced convulsion assay (survival); type: in vivo, mice (male Swiss-albino, CD-1 strain); settings: for ED50: Mus musculus, ip, 0.5 h
Method: The compounds of the invention are further tested for their in vivo ability to antagonize NMDA in the murine NMDA-induced convulsion assay.
Male Swiss-albino mice (CD-1 strain, Charles River) 18-22 grams in weight, after 18 hours of food deprivation, are habituated to an observation chamber for 30 minutes. The mice are pretreated with the representative test compound followed thirty minutes later with NMDA, 195 mg/kg, i.p., which is a dose normally causing 90% mortality resulting from motor seizures including uncontrollable hind leg scratching or limbs and/or torso muscle jerking with loss of righting reflex followed by death within the 30 minute observation period after NMDA administration. From the latter, the ED50 for survival is determined.
Data analyzed using the probit analysis program PS-NONLIN (Natural Response Rate Version). The output of this program contains the statistical significance of the slope of the dose-response and the ED 50% and 95% confidence limits for survival.

[3] = standard compounds, read-out: IC50 ± S.E.M.
[4] = reference compounds, i.p., 30 min before NMDA 195 mg/kg i.p., 95% confidence interval, read-out: ED50 % for survival
[5] = compounds of the invention, read-out: IC50
[6] = compounds of the invention, i.p., 30 min before NMDA 195 mg/kg i.p., read-out: ED50 (survival)

N[C@@H](CCC(=O)O)C(=O)O [L. Glutamic Acid, reference compound]
IC50 [1, 3]: 64.3 ± 4.7 nM

C[C@]12N[C@H](Cc3ccccc31)c1ccccc12 [MK-801, reference compound]
ED50 [2, 4]: 0.19 mg/kg

Cc1cc2nc(C[C@@H](N)C(=O)O)n(CP(=O)(O)O)c2cc1C.Cl.Cl [Example 3, R-α-Amino-5,6-dimethyl-1-(phosphonomethyl)-1H-benzimidazole-2-propanoic acid, dihydrochloride]
IC50 [1, 5]: 123 nM | % survival ([2]; 3 mg/kg, 30 min before NMDA 195 mg/kg i.p.): 10%

Cl.Cl.N[C@H](Cc1nc2cc(Cl)c(Cl)cc2n1CP(=O)(O)O)C(=O)O [Example 2, R-α-Amino-5,6-dichloro-1-(phosphonomethyl)-1H-benzimidazole-2-propanoic acid, dihydrochloride]
IC50 [1, 5]: 18.2 nM | ED50 ([2]; read-out: ED50 (survival)): 2.7 mg/kg

N[C@H](Cc1nc2ccc(Cl)cc2n1CP(=O)(O)O)C(=O)O [Example 7, R-α-Amino-6-chloro-1-(phosphonomethyl)-1H-benzimidazole-2-propanoic acid, 0.8 hydrochloride, hydrate]
IC50 [1, 5]: 21.7 nM | ED50 [2, 6]: < 5 mg/kg

NC(CCCCCP(=O)(O)O)C(=O)O (centres unmarked) [AP7, reference compound]
IC50 [1, 3]: 639 ± 129 nM

N[C@@H](Cc1nc2cc(Cl)c(Cl)cc2n1CP(=O)(O)O)C(=O)O [Example 9, S-α-Amino-5,6-dichloro-1-(phosphonomethyl)-1H-benzimidazole-2-propanoic acid, dihydrate]
IC50 [1, 5]: 1010 nM | ED50 [2, 6]: > 10 mg/kg

O=C(O)C1CN(CCCP(=O)(O)O)CCN1 (centres unmarked) [CPP, 3-(2-carboxypiperazine-4-yl)propyl-1-phosphonic acid, reference compound]
ED50 [2, 4]: 1.04 mg/kg

Cl.N[C@H](Cc1nc2cc(Cl)ccc2n1CP(=O)(O)O)C(=O)O [Example 8, R-α-Amino-5-chloro-1-(phosphonomethyl)-1H-benzimidazole-2-propanoic acid hydrochloride]
IC50 [1, 5]: 7 nM | ED50 ([2]; read-out: ED50 (survival)): 0.13 mg/kg

CN1C(=O)CN=C(c2ccccc2)c2cc(Cl)ccc21 [Diazepam, reference compound]
ED50 [2, 4]: 1.91 mg/kg

Cl.Cl.N[C@H](Cc1nc2ccccc2n1CP(=O)(O)O)C(=O)O.O.O [Example 1, R-α-Amino-1-(phosphonomethyl)-1H-benzimidazole-2-propanoic acid, dihydrochloride, dihydrate]
IC50 [1, 5]: 59 nM | ED50 ([2]; read-out: ED50 (survival)): 2 mg/kg
